Experimental findings from patent US20220025003A1, “REAGENTS AND METHODS FOR CONTROLLING PROTEIN FUNCTION AND INTERACTION” (University of Washington, priority 2018, published 2022) are described below.

In one experiment the test system is GFP, CD95 and CXCR4. Kind of experiment: 3-gene experiment (GFP, CD95, CXCR4) by RT-qPCR. The format is cell-based. The note with it: 10 μM danoprevir, 1 μM grazoprevir, 1 μM asunaprevir. The source says:
Cells were harvested on day 5 as described above for other samples to be analyzed to qPCR.

The test system of experiment [1] is NS3a in NIH3T3 cells. Nature of the experiment: Confocal microscopy for colocalization analysis (fixed cells). The format is cell-based. To be noted: for DNCR2-EGFP colocalization with mitochondrial Tom20-mCherry-NS3a: 10 μM drug, 1 h.
Experiment [2] concerns RAS/ERK pathway in HEK293 cells. Nature of the experiment: Activation of NS3a-CDAR, phospho-ERK blot. The class given is cell-based. The note with it: 10 μM drug, 60 min. As to the method: 18-24 hours prior to transfection, 3.0×10^5 HEK293 cells were plated onto poly-D-lysine 12 well plates. Immediately prior to transfection, media was aspirated and cells were washed with 1 mL of pre-warmed (37° C.) PBS, then serum starved with FBS-free DMEM. Following serum starvation, cells were transfected with 1 μg of FLAG-tagged NS3a-CDAR, BH3-NS3a-CDAR, or an empty pCDNA5 vector. Transfected cells were allowed to serum stave for 18-20 hours prior to drug treatment. For drug treatment, serum-free media was prepared with DMSO or 10 μM of a drug. Media was aspirated, washed once with pre-warmed DPBS, then treated with drug/DMSO media for the requisite amount of time. Media was subsequently aspirated and the cells were washed twice with 1 mL chilled PBS, then lysed with 75 μL Mod. RIPA buffer (50 mM Tris, pH 7.8, 1% IGEPAL CA-630, 150 mM NaCl, 1 mM EDTA, 2 mM Na3VO4, 30 mM NaF, Pierce Protease Inhibitor Tablet). Cleared lysates were subjected to SDS-PAGE and transferred to nitrocellulose. Blocking and antibody incubations were done in TBS with 0.1% Tween-20 (v/v) and blocking buffer (Odyssey). Primary antibodies were all purchased from Cell Signaling Technologies and were diluted as follows: Total ERK (1:2500, #9107), phosphorylated ERK (1:2500, #4370), FLAG (1:2,500, #D6W5B). Blots were washed three times in TBS with 0.1% Tween-20. Antibody binding was detected by using near-infrared-dye-conjugated secondary antibodies and visualized on the LI-COR Odyssey scanner. Blots were quantified via densitometry with Image Studio (LI-COR).

Experiment [3] relates to NS3a in NIH3T3 cells. Nature of the experiment: Confocal microscopy for colocalization analysis (fixed cells). The format is cell-based. The note with it: 10 μM drug, 1 h. As to the method:
A Leica SP8× system was used for confocal microscopy. […] TagBFP emission was recorded on a PMT detector, and EGFP and mCherry™ were detected by separate HyD™ detectors.
Colocalization experiments were performed in NIH3T3 cells (Flp-In-3T3, Thermo Fisher Scientific). For fixed-cell experiments, cells were plated at 3×10^4 cells/mL on sterile glass coverslides placed in 12-well culture plates. […] One day after transfection, cells were treated with drug or DMSO and fixed. Drug additions were performed by exchanging the media for DMEM+10% v/v FBS plus drug. To fix, cells were washed once with DPBS (Thermo Fisher Scientific), then incubated with 4% v/v paraformaldehyde in DPBS for 15 minutes. After washing twice with DPBS, coverslides with cells were removed from the plate and mounted on glass slides using Fluoromount-G (SouthernBiotech).
Colocalization of NS3a and DNCR1 at the plasma membrane, nucleus, mitochondria and Golgi was performed with two sets of constructs, with either NS3a or DNCR1 as the immobilized component. mCherry™-NS3a was used with Tom20-DNCR1-EGFP, DNCR1-EGFP-Giantin, and 3×NLS-DNCR1-EGFP. […] Colocalization was analyzed after 1 h of 10 μM drug or equal volume DMSO treatment.
All images were analyzed using ImageJ. […] EGFP fluorescence was quantified in the ROI over the timecourse. […] The cytoplasmic fluorescence was normalized to the value in the first and last frame for each cell. […]

Experiment [4] has as its system GFP reporter gene in HEK293T cells. Kind of experiment: dciCas9-mediated transcription. The format is cell-based. To be noted: 10 μM A115 and 10 μM grazoprevir. As to the method: For FACS analysis, 10,000 single cell events were collected for each of the samples run. […] The gathered FACS data were analyzed using FlowJo (v.10.1).
For another experiment, the system named is HeLa cells. Nature of the experiment: Widefield microscopy for signaling phenotype analysis. The class given is cell-based. To be noted: EGFP-DNCR2-TIAM, BFP-GNCR1-LARG and NS3a-CAAX in HeLa cells. On the procedure: Widefield images were collected in an environmental chamber with humidity control, 37° C., and 5% CO2 on a Leica DMi8 automated fluorescence microscope. Cells were plated on glass-bottomed 96-well plates (Cellvis). Plates were treated with 10 μg/mL bovine fibronectin (Sigma Aldrich) for 1 hour and washed once with PBS.
The cell line used was TRex™-HeLa (ThermoFisher Scientific), into which Lifeact-mCherry™ was stably integrated into the doxycycline-regulated Flp-In site by co-transfection of the pCDNA5-FRT/TO-Lifeact-mCherry™ vector with the Flp recombinase plasmid pOG44 (ThermoFisher Scientific) according to manufacturer's protocols. Lifeact-mCherry™ was induced by addition of 1 μg/mL doxycycline to culture media. For expression of signaling effector proteins, 1 day prior to imaging, 5×10^6 cells were transiently transfected with 10 μg DNA in a 100 μL electroporation tip using a Neon transfection system (ThermoFisher Scientific) according to manufacturer's recommendations for HeLa cells. 5×10^3 cells were plated in each well of the 96-well plate used for imaging. Cells recovered in complete DMEM with 10% FBS overnight. […] For Rac/Rho regulation, the construct PB-NS3a-CAAX-IRES-EGFP-DNCR2-TIAM-P2a-BFP-GNCR1-LARG was used, with images collected for the mCherry™ (Lifeact) and EGFP (DNCR2-TIAM) channels. […]

The subject of another experiment is CXCR4. Nature of the experiment: cells. To be noted: Homo sapiens, read-out: EC50 (CXCR4 expression).
Experiment [5] deals with mCherry reporter gene in HEK293T cells. Kind of experiment: Chemically-disruptable Gal4(DBD)-NS3a(H1)/ANR-VPR transcriptional regulation. The class given is cell-based. To be noted: 1 μM drug, 24 hours. As to the method: Cells were subsequently transfected with 1 μg of the Gal4 reporter plasmid (UAS-mCherry™/CMV-Gal4-NS3a(H1)-P2A-ANR-Myc-BFP-VPR-NLS) in OptiMem™. […] Supernatant was subsequently removed and the cells were re-suspended in 400 μL DPBS and analyzed on a FACS LSRII (BD Biosciences).
For Gal4/NS3a-CDP mediated transcriptional activation FACS experiments, 10,000 single cell events were collected for each of the samples run. […] The gathered FACS data were analyzed using FlowJo™ (v.10.1).

For the next experiment, the target named is T1, NS3a* (Hepatitis C virus genotype 1a, UniProt P27958, C1073S/C1078L/C1185S/I1043Q/I1044E/I1098T/L1039E/L1040E/L1047Q/L1179I/N1200S/P1112Q/Q1106K/T1100M/T1173A).
T1 construct: His6-NS3a; made in house; host or cells: E. coli BL21 (DE3)
Kind of experiment: Fluorescence polarization binding assay (FB50) with FAM-ANR. On the procedure:
(§1) The affinities of the NS3a variants for ANR were determined using a fluorescence polarization assay. Fluorescently labeled ANR (FAM-ANR, FIG. 5B) was obtained as a crude mixture from GenScript™ and purified by HPLC. Titrations of recombinant NS3a variants (3-fold serial dilutions, starting at 5 μM) were diluted in FP-Buffer (50 mM HEPES, pH 7.8, 100 mM NaCl, 5 mM DTT, 1% Glycerol, 0.01% Tween, 5% v/v DMSO). These dilutions were added to a wells containing FAM-ANR (final concentration=10 nM). FAM-ANR/NS3a solutions were incubated at room temperature in the dark for 1 hour. Fluorescence polarization was measured on a Perkin Elmer EnVision™ fluorometer (excitation, 495 nm; emission 520 nm). All measurements were carried out in black 96-well plates (Corning, product #: 3720) and run in triplicate. Anisotropy values were obtained and a nonlinear regression model was used to determine binding constants in GraphPad™ Prism.
Background: In fluorescence polarisation assays a small probe gives low polarisation when free and higher when bound to something large.

Another experiment concerns the target T2, NS3a (Hepatitis C virus genotype 1b, UniProt Q9WMX2, A1176V/E1056D/L1047A/L1120M/Q1112P/R1052K/V1062L/V1196I).
T2 construct: Avi-His6-NS3a; the text calls the FP protein non-biotinylated) (N); made in house; host or cells: E. coli BL21 (DE3)
The experiment is described as above. As to the method: as §1

A further experiment deals with T3, NS3a protease (Hepatitis C virus genotype 1b, UniProt Q9WMX2, A1176V/C1042I/E1056D/L1047A/L1120M/Q1112P/R1052K/V1062L/V1196I).
T3 construct: SNAPtag-NS3a-His6; made in house; host or cells: E. coli BL21(DE3)
Nature of the experiment: NS3a protease inhibition FRET assay. The class given is biochemical. To be noted: ANR-GST fusion, FRET-based protease assay. As to the method:
The potency of ANR against NS3a protease was determined via a FRET assay. Titrations of ANR-GST (3-fold serial dilutions starting at 10 μM) were added to a black 96-well plate (Corning, product number 3720) containing 50 nM SNAPtag-NS3a. Reactions were incubated with NS3a-SNAPtag at room temperature for 1 hour. To each well was simultaneously added substrate M-2235 (Bachem) to a final concentration of 5 μM and reactions were monitored by measuring the fluorescence intensity every minute for 30 minutes at 22° C. on a Perkin Elmer EnVision™ fluorometer (excitation, 360 nm; emission 460 nm). Each measurement was carried out in triplicate. Slopes of the fluorescence increase were compared to a no-protease control. A nonlinear regression model was used to fit curves using GraphPad™ Prism.

As for `C=C[C@@H]1C[C@]1(NC(=O)[C@@H]1C[C@@H](Oc2ncc(OC)c3ccc(Cl)cc23)CN1C(=O)[C@@H](NC(=O)OC(C)(C)C)C(C)(C)C)C(=O)NS(=O)(=O)C1CC1` [asunaprevir], the “transcriptional output state in 3-gene system” value in the experiment on GFP, CD95 and CXCR4 is given as “no gene expression”. Moreover, in the experiment on NS3a in NIH3T3 cells [1], the “DNCR2-EGFP colocalization with mitochondrial Tom20-mCherry-NS3a” value is listed as “neither grazoprevir nor asunaprevir induced DNCR2-EGFP colocalization”. Also, the “phospho-ERK levels in cells expressing NS3a-CDAR” value in experiment [2] is reported as “robust increase in phospho-ERK levels”. Moreover, the “Colocalization of DNCR1-EGFP and NS3a-mCherry” value in the experiment on NS3a in NIH3T3 cells [3] is given as “much lower correlation”.

The term EC50 denotes the midpoint of the concentration-response curve. As to `C=C[C@@H]1C[C@]1(NC(=O)[C@@H]1C[C@@H]2CN1C(=O)[C@H](C(C)(C)C)NC(=O)O[C@@H]1C[C@H]1CCCCCc1nc3ccc(OC)cc3nc1O2)C(=O)NS(=O)(=O)C1CC1` [grazoprevir], in [4], the “GFP expression on co-administration with A115” value was “reversed”. For the same compound, the “transcriptional output state in 3-gene system” value in the experiment on GFP, CD95 and CXCR4 is given as “CXCR4 expression under control of GNCR1”. For the same compound, in the experiment on HeLa cells, the cell shape change entry is given as “caused cell contraction”. Also, the “Colocalization of DNCR2-EGFP and GNCR1-BFP with NS3a-mCherry-CAAX” value in the experiment on NS3a in NIH3T3 cells [1] (5 μM drug) is reported as “GNCR1/NS3a colocalization”. In the experiment on NS3a in NIH3T3 cells [1] (5 μM drug, 15 min), the “Colocalization of NS3a-mCherry with GNCR1-BFP-CAAX or Tom20-DNCR2-EGFP” value is “exclusively colocalized NS3a-mCherry™ to plasma membrane-targeted GNCR1-BFP-CAAX”. Also, the “DNCR2-EGFP colocalization with mitochondrial Tom20-mCherry-NS3a” value with NS3a in NIH3T3 cells [1] is on record as “neither grazoprevir nor asunaprevir induced DNCR2-EGFP colocalization”. Moreover, in experiment [2], the “phospho-ERK levels in cells expressing NS3a-CDAR” value is given as “robust increase in phospho-ERK levels”. In addition, the EC50 in the experiment on CXCR4 worked out at 0.16 ± 0.03 nM. Also, the “mCherry expression after drug treatment” value in [5] is “decreased mCherry™ expression to background levels”. Moreover, in the experiment with NS3a in NIH3T3 cells [3], the “Colocalization of DNCR1-EGFP and NS3a-mCherry” value is given as “much lower correlation”.

Consider “genetically-encoded peptide inhibitor of NS3a, GELDELVYLLDGPGYDPIHSD (SEQ ID NO:14); tested as ANR-GST and FAM-ANR”, for which the “affinity for NS3a*” value in the experiment with NS3a* is recorded as “very low affinity”. The “binding to NS3a” value with NS3a is on record as “binds tightly”. Moreover, the “apparent IC50 against NS3a activity” value in the experiment with NS3a protease was “less than the concentration of NS3a protease used in the assay”.
